Reference: ChEMBL document CHEMBL3751812, “Novel skeleton compound Allomyrinanoid A and two purine alkaloids from the adult of Allomyrina dichotoma L” (2016)

Experiments:
Format in all cases: functional
Settings in all cases: read-out: DIZ
Bacillus subtilis [1] = experiment: Antibacterial activity against Bacillus subtilis assessed as growth inhibition at 10 mg/ml by drug sensitive assay
Escherichia coli = experiment: Antibacterial activity against Escherichia coli assessed as growth inhibition at 10 mg/ml by drug sensitive assay
Bacillus subtilis [2] = experiment: Antibacterial activity against Bacillus subtilis assessed as growth inhibition at 1 mg/ml by drug sensitive assay
Staphylococcus aureus [3] = experiment: Antibacterial activity against Staphylococcus aureus assessed as growth inhibition at 10 mg/ml by drug sensitive assay
Staphylococcus aureus [4] = experiment: Antibacterial activity against Staphylococcus aureus assessed as growth inhibition at 1 mg/ml by drug sensitive assay

| SMILES | zone of inhibition at 10000 µg/mL (Bacillus subtilis [1]) | zone of inhibition at 10000 µg/mL (Escherichia coli) | zone of inhibition at 1000 µg/mL (Bacillus subtilis [2]) | zone of inhibition at 10000 µg/mL (Staphylococcus aureus [3]) | zone of inhibition at 1000 µg/mL (Staphylococcus aureus [4]) |
| --- | --- | --- | --- | --- | --- |
| CNC(=O)[C@H]1CCC[C@@H](C(=O)O)[C@@H](C)[C@H](C)[C@H](C)[C@@H]1C | 4.5 mm |  |  |  |  |
| Nc1ncnc2c1ncn2/C=N\O (stereo in doubt; 2) |  | 5.5 mm |  |  |  |
| CC1(C)S[C@@H]2[C@H](NC(=O)Cc3ccccc3)C(=O)N2[C@H]1C(=O)O [PENICILLIN G] | 18 mm |  | 10 mm | 17 mm | 9 mm |
